Test [1] concerns wheat mesocotyl explants. As to the kind of experiment: Multiple shoot production with cytokinins alone, wheat mesocotyl explants. The class given is cell-based. Particulars: cytokinin 5 mg/L, 32 days after culture. The method, then:
A. Wheat mesocotyl explant: Mature wheat seeds were surface sterilized first in 70% ethanol for 1 min. and then soaked in 20% CLOROX® (5.25% sodium hypochlorite) and shaken at 250 rpm for 20 min. The seeds were then rinsed five times with sterile distilled water and then placed in 100×25 mm petri dishes containing a sterile piece of felt and ˜15 mL of double distilled sterile water with 5 μM BA for germination. The seeds were cultured for 1 day in darkness at ˜24° C. Mesocotyl sections about 2-3 mm in length were then excised by removing the upper portion of the coleoptile, approximately 1-1.5 mm in length, and root tissue around the crown region. These mesocotyl explants contain at least several different and distinct meristems, such as a scutellar node, a coleoptile node, a first leaf bud and possibly several leaf nodes, and an apical meristem. This mesocotyl explant thus comprises an apical meristem and several axillary meristems, including the scutellar node meristem. […] It is also important that the explants have all of the described meristems intact after excision, in order to maximize multiple bud response in culture.
Wheat explants such as mesocotyl sections from seedlings, mature embryos from mature seeds, and immature embryos from immature seeds were cultured on multiple shoot inducing media comprising combinations of cytokinins, auxins and abscisic acid (ABA). […] The particular media compositions used for this invention are described in detail in Table 1. The mesocotyl explants were placed on media with the acropetal end up, and mature and immature embryo explants were placed on media with the scutellum-side up. […]
For the first three weeks, the explants were usually trimmed, by removing the top portion of coleoptile 3-5 mm above the crown region for wheat, every 3 to 5 days to inhibit dominant growth.
Four different cytokinins, not in combination with auxin, were tested for their ability to induce multiple shoot induction on wheat mesocotyl explants: BA, kinetin, zeatin and TDZ.

Test [2] deals with shoots from Bobwhite mesocotyl explants. As to the kind of experiment: Root induction of elongated shoots. The class given is cell-based, wheat. Particulars: IBA 1 mg/L. How it is done:
Usually three to five weeks after the induction stage culture described above, multiple bud clumps were divided and transferred to a shoot elongation medium, and cultured under 16 h photoperiod at about 25° C. for 3 to 4 weeks. The shoot elongation medium comprised MS basal medium supplemented with ascorbic acid at 100 mg/L, 2-[N-Morpholino]ethanesulfonic acid (MES) at 1.95 g/L, casein hydrolysate at 100 mg/L, maltose at 40 g/L, and Schweizer-Hall® gelling agent at 2 g/L. The elongated shoots were transferred to a rooting medium, comprising MS basal medium supplemented with IBA at 1 mg/L, ascorbic acid at 100 mg/L, 2-[N-Morpholino] ethanesulfonic acid (MES) at 1.95 g/L, casein hydrolysate at 100 mg/L, maltose at 40 g/L, and Schweizer-Hall® gelling agent at 2 g/L, for 3 to 4 weeks, after which sufficient roots had formed to transfer the shoots to soil.
Three genotypes were tested to evaluate shoot elongation from the buds induced in the above described multiple shoot induction step. Bobwhite, 251BW012 and Autry525 were chosen as representative standard, good and poor lines respectively, based on a previous study of embryogenic regeneration capacity. The buds were removed from the media containing the growth regulator combination described in the induction stage, after about 3-5 weeks of culture. […]

Test [3] concerns wheat mesocotyl explants. The test can be described thus: Multiple bud induction from primary meristems on multiple shoot inducing media, wheat mesocotyl explants. To be noted: 4 weeks after culture initiation (Table 3). It is filed as cell-based. The method, then: A. Wheat mesocotyl explant: Mature wheat seeds were surface sterilized first in 70% ethanol for 1 min. and then soaked in 20% CLOROX® (5.25% sodium hypochlorite) and shaken at 250 rpm for 20 min. The seeds were then rinsed five times with sterile distilled water and then placed in 100×25 mm petri dishes containing a sterile piece of felt and ˜15 mL of double distilled sterile water with 5 μM BA for germination. The seeds were cultured for 1 day in darkness at ˜24° C. Mesocotyl sections about 2-3 mm in length were then excised by removing the upper portion of the coleoptile, approximately 1-1.5 mm in length, and root tissue around the crown region. These mesocotyl explants contain at least several different and distinct meristems, such as a scutellar node, a coleoptile node, a first leaf bud and possibly several leaf nodes, and an apical meristem. This mesocotyl explant thus comprises an apical meristem and several axillary meristems, including the scutellar node meristem. It is important when excising the mesocotyl explant to leave a whole piece of the scutellum attached to the explant, because the scutellar node meristem contributes a large primary meristem from which upwards of 100 buds can be produced via the method of the present invention, relative to the small primary meristems contributed by the other meristems from which a smaller number of buds can be produced. […]

[4] abbreviates: (D) continuous dark first two weeks, then light 16/8 two weeks.
The mark [5] stands for this setting: (L) 16 h photoperiod for four weeks.

With `c1ccc(CNc2ncnc3nc[nH]c23)cc1` [BA, 6-benzylaminopurine], in the test with wheat mesocotyl explants [1] (setting [4]), the “% of explants producing 2-5 shoots (each from a single primary meristem)” value (“% of explants producing 2-5 shoots” for short) is 15.0% and the “% of explants producing multiple shoots from a single primary meristem” value (“% of explants producing multiple shoots” below) was 0%. In addition, in the test on wheat mesocotyl explants [1] (setting [5]), the “% of explants producing 2-5 shoots” value amounted to 10.0% and the “% of explants producing multiple shoots” value came to 0%.
Regarding `O=C(O)CCCc1c[nH]c2ccccc12` [IBA, 3-indolebutyric acid], the “% shoots producing roots” value in test [2] is recorded as “significantly increased the rooting response”.
Turning to `c1coc(CNc2ncnc3[nH]cnc23)c1` [Kinetin, kinetin], in the test on wheat mesocotyl explants [1] (setting [4]), the “% of explants producing 2-5 shoots” value stood at 23.8% and the “% of explants producing multiple shoots” value is on record as 0%. Besides, in the test on wheat mesocotyl explants [1] (setting [5]), the “% of explants producing 2-5 shoots” value was found to be 20.0% and the “% of explants producing multiple shoots” value turned out to be 0%.
On to `O=C(Nc1ccccc1)Nc1cnns1` [TDZ, thidiazuron], for which, in the test with wheat mesocotyl explants [1] (setting [4]), the “% of explants producing 2-5 shoots” value is recorded as 76.2% and the “% of explants producing multiple shoots” value is reported as 0%. In addition, in the test with wheat mesocotyl explants [1] (setting [5]), the “% of explants producing 2-5 shoots” value worked out at 80.0% and the “% of explants producing multiple shoots” value was found to be 0%. In the test with wheat mesocotyl explants [3], the “% explants producing 20-80 buds/primary meristem” value was 0% and the “No. primary meristems produced/explant” value was 2-5.
Regarding `C/C(=C\CNc1ncnc2[nH]cnc12)CO` [Zeatin, zeatin], in the test with wheat mesocotyl explants [1] (setting [4]), the “% of explants producing 2-5 shoots” value amounted to 45.0% and the “% of explants producing multiple shoots” value is 0%. Further, in the test on wheat mesocotyl explants [1] (setting [5]), the “% of explants producing 2-5 shoots” value is reported as 20.0% and the “% of explants producing multiple shoots” value was 0%.

The values above are taken from patent US10253322B2, “Method for the production of transgenic plants” (MONSANTO TECHNOLOGY LLC, priority 2001, dated 2019).
